# Test system: U-2 OS (ATCC, HTB-96) cells
# Experiment: Cell Painting: changes in cell morphology induced by synthesized compounds
# Assay type: cell-based
# Conditions: U-2 OS cells, 24-hour treatment; for Determination of bioactives: reproducibility of fingerprints and magnitude of the activity: Cell Painting feature vectors vs DMSO, 3 repeats, FIG. 8; for Clustering of fingerprints (similarity of fingerprints) with known bioactives: Cell Painting, cosine similarity, FIG. 9
# Procedure: U-2 OS (ATCC, HTB-96) cells were cultured in T-75 flasks (Greiner, 658170) under McCoy's 5a medium (HIMedia, AT057), supplemented with 10% fetal bovine serum (FBS) and 1% Penicillin/Streptomycin solution, and incubated at 37° C. in a 5% CO2 atmosphere. Upon reaching 80% confluence, cells were washed, trypsinized (0.25% solution with EDTA, VWR, M143), and removed. Flasks were reseeded with one-fifth of the cell count for each passage. All cell plates reported in this paper were composed of U-2 OS from incubation lengths of five or fewer passages. 384 Black-welled plates with optically clear bottoms (Corning, 6569) were seeded with U-2 OS at a density of 1,000 cells per well and cells were allowed to incubate for 24 h to ensure adherence.
# Three compound plates (Thermo Scientific, AB-1056) were constructed using an initial aliquot of a 50 mM compound solution solubilized in DMSO. Each compound aliquot was then twofold serially diluted in DMSO to yield eight concentrations ranging from 50 mM to 390 μM. This process was repeated so that compound plate 1 contained each of the 16 test (cycloheptatriene) compounds and one azetidinol, compound plate 2 contained 19 esters, and compound plate 3 contained the diazo compounds. Vehicle treatments were included in the plate design as DMSO-containing wells (around 200) with no added compound. Staurosporine diluted to 500 μM in DMSO was included on the plate as a positive control to test the transfer of compounds from pin transfer.
# After a 24 h incubation period, untreated cell-containing plates and the compound plate were each fitted into a Library Copier, and a sterile Multi-Blot Replicator (V and P Scientific) was used to transfer a 100 nL volume from each well of the 384 well compound plate into the culture media (50 μL) of a corresponding well on the 384 well cell plate. These cell plates were reintroduced to a 37° C., 5% CO2 atmosphere for the duration of the 24-hour treatment period.
# 1 L of Hank's Buffered Saline Solution (HBSS) (1× from 10×) was prepared using 100 mL HBSS (10×) and diluted with 900 mL deionized water. The pH of the solution was adjusted to 7.2 with aqueous NaOH and filtered through a 0.2-micron filter. A 1% w/v solution of BSA (VWR, 0332) was prepared in 1×HBSS using 150 mg BSA, dissolved in 15 mL HBSS. The solution was filtered through a 0.2-micron filter. Live-cell MitoTracker (Thermo Fisher, M22426) staining solution was prepared using 6.5 μL of MitoTracker staining solution from a stock of 1 mM MitoTracker and dissolved in 13 mL of pre-warmed cell culture medium (RPMI) for a final concentration of 500 nM.
# Staining dyes: a. […]
Structure (SMILES),Determination of bioactives: reproducibility of fingerprints and magnitude of the activity,Clustering of fingerprints (similarity of fingerprints) with known bioactives
CC(C)(C)OC(=O)n1cc(C23C=CC=CC=C2[C@@]2(CN4CCCC[C@H]42)OC3=O)c2ccccc21 (stereo partly shown) [Compound 1-1-3],showed reproducible fingerprints and magnitude of the activity,–
CC[C@]1(O)C[C@H]2CN(CCc3c([nH]c4ccccc34)[C@@](C(=O)OC)(c3cc4c(cc3OC)N(C=O)[C@H]3[C@@](O)(C(=O)OC)[C@H](OC(C)=O)[C@]5(CC)C=CCN6CC[C@]43[C@@H]65)C2)C1 [vincristine],–,cluster together
CC(=O)O[C@H]1C(=O)[C@@]2(C)[C@H]([C@H](OC(=O)c3ccccc3)[C@]3(O)C[C@H](OC(=O)[C@H](O)[C@@H](NC(=O)c4ccccc4)c4ccccc4)C(C)=C1C3(C)C)[C@]1(OC(C)=O)CO[C@@H]1C[C@@H]2O [taxol],–,cluster together
O=C1O[C@]2(CN3CCCC[C@H]32)C2=CC=CC=C[C@@]12c1ccsc1 [Compound 1-1-4],showed reproducible fingerprints and magnitude of the activity,–

# — patent US20240239805A1, “AZA-YANG CYCLIZATION-BUCHNER AROMATIC RING EXPANSION: COLLECTIVE SYNTHESIS OF CYCLOHEPTATRIENE-CONTAINING AZETIDINE LACTONES” (University of Kansas, priority 2022, published 2024)
